Experimental data taken from publication PMC4503980 (Scientific Reports, 2015).

Assays:
[1] = molecular target: T1, nNOS-PDZ (Homo sapiens, UniProt P29475); test: FP saturation and inhibition assay, Cy5-Nav1.4 probe / nNOS-PDZ; assay type: binding; conditions: concentrations reaching 500–1800 μM; Cy5-Nav1.4 50 nM; [nNOS-PDZ] = 20 μM (ZL006) or 10 μM (IC87201)
T1 construct: nNOS-PDZ (12–130, human); made in house; host or cells: E. coli
Experimental: Fluorescent probes were made by attaching fluorophores (Cy5) to C-terminal 10- or 11-mer (C10 or C11) peptide ligands representing canonical and natural occurring protein partners (Supplementary Table S1). […] (Fig. 2).
(b) Cy5-GluN2B as probe (50 nM), [PDZ2] = 6 μM. (c) Cy5-CRIPT as probe (50 nM), [PDZ3] = 5 μM. […] Error bars indicate SEM based on three individual measurements.
nNOS-PDZ (12–130, human) and α-Syntrophin-PDZ (82–200, human), both comprising an N-terminal His-tag/FXa-site sequence ([…]), were likewise expressed in E. coli and purified by HisTrap chromatography followed by gel-filtration as described in details previously. To make the TAMRA-labelled nNOS-PDZ, mutant nNOS-PDZ (V36C) protein was generated by standard site-directed mutagenesis and characterized as described previously. Here, dithiothreitol was added to the pooled protein sample after HisTrap purification to a final concentration of 10 mM to eliminate unwanted disulfide bonds, and a final gel-filtration (50 mM NaPi buffer pH 7.5) was performed to remove impurities and salts. Next, purified nNOS-PDZ (V36C) was desalted by dialysis into 50 mM (NH4)2CO3 buffer (SnakeSkin dialysis tubing 3.5 MWCO, Pierce, Rockford, IL, USA) and subsequently lyophilized. nNOS-PDZ (V36C) was redissolved in 500 μL buffer (6 M GnHCl, 200 mM NaPi) and solid TAMRA-maleimide (5-tetramethylrhodamine-C2-maleimide; Anaspec, Fremont, CA, USA) was added in excess (cf. ESI-LC-MS). The coupling reaction was incubated at room temperature for 16 hours and TAMRA-labelled nNOS-PDZ was purified by preparative HPLC, and refolded in assay buffer. Functional validation was performed by FP[19], and all final proteins were characterized for purity and identity by SDS-PAGE and ESI-LC-MS.
Incubation time was 10–15 minutes (room temperature), and the assay was performed in a 1 × TBS buffer (150 mM NaCl, 10 mM Tris, pH 7.4) using black flat-bottom 384-well plates (Corning Life Sciences, NY) and a Safire2 plate-reader (Tecan, Männedorf, Switzerland). G-factor was adjusted so that probe alone (i.e. without protein interacting-partner) would give an FP value of 20 mP. This background value was subsequently subtracted from the raw data before plotting and analyzing the data. TAMRA- and Cy5-probes were measured at excitation/emission values of 530/585 nm (bandwidth = 20 nm) and 635/670 nm (bandwidth = 15 nm), respectively. […]
FP values were fitted to the general equation: Y = Bottom + (Top–Bottom)/[1 + (10^(X-logIC50)*HillSlope)], where X is the logarithmic value of peptide/compound concentration, and Y is the experimental FP values. Competitive inhibition constants, Ki values, were calculated from the IC50 values to quantify affinities between test substance and protein[42]. […]

[2] = molecular target: T2, nNOS-PDZ/PSD-95-PDZ2 interaction (Mus musculus, UniProt Q9Z0J4); test: ITC of nNOS-PDZ/PSD-95-PDZ2 interaction in the presence of compound; assay type: binding; conditions: 1 mM IC87201 present; significant interference, reduced reliability
T2 construct: nNOS-PDZ (residues 12–134, Uniprot Q9JJ30); PSD-95-PDZ2 (157–249, human); made in house
T2 sequence (Q9Z0J4 12-134): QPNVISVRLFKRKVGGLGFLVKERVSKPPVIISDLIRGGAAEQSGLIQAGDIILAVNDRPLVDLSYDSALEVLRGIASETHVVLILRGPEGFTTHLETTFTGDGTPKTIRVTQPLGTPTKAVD
Experimental: (§1) Unlike the FP experiments above, which rely on inhibition of interaction partners, the ITC method is a direct measure of binding, regardless of where it takes place on the protein.
(§2) Figure 5 ITC curves. Plots showing titrations into PDZ domains fitted to a one-site model.
(§3) All ITC experiments were carried out at 25 °C on an iTC200 Microcalorimeter (GE Healthcare) with a 200 μL cell capacity and 40 μL syringe volume. The buffer used for all solutions was 20 mM phosphate buffer at pH 6.3; each experiment consisted of an initial injection of 0.5 μL, followed by fifteen 2.39 μL injections before a final injection of 1.89 μL. […] In both cases no heat exchange was detected, confirming that there was appropriate match of buffer conditions with no indication of dilution effects. […] For the nNOS-PDZ/PSD-95-PDZ2 interaction, 100 μM PDZ2 in the cell was titrated with 750 μM nNOS-PDZ. […] All data was analysed using the Origin®7 software programme.

[3] = system: 34 targets in a panel of receptors, ion channels, and transporters; design: method as in PMID 19732061; conditions: cited from earlier work
[4] = system: NMDA-induced 3′,5′-cyclic guanosine monophosphate (cGMP) production; design: method as in PMID 19732061; conditions: hippocampal cultures; cited from earlier work
[5] = system: two mice pain models; design: method as in PMID 19732061; conditions: cited from earlier work
[6] = molecular target: PSD-95-PDZ2 (Homo sapiens, UniProt P78352); test: ITC titration into PSD-95-PDZ2; assay type: binding; design: PSD-95-PDZ2 (157–249, human); made in house; conditions: 100 μM protein in cell, 750 μM compound in syringe, 1% DMSO, pH 6.3, 25 °C
Chain of PSD-95-PDZ2 (P78352 157-249): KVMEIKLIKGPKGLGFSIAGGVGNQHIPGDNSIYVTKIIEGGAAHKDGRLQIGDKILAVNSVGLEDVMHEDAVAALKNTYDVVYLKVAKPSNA
Source text: as §1, §2
For isothermal titration calorimetry (ITC) and NMR, PSD-95-PDZ2 (157–249, human) was expressed and purified as described previously. The sequence for the extended Mus musculus nNOS-PDZ (residues 12–134, Uniprot Q9JJ30) was sub-cloned into a pETM11 vector using cloning sites Nco1 and Kpn1, and the protein was expressed and purified following a similar protocol to that used for the production of PSD-95-PDZ2.
as §3

[7] = system: nNOS/PSD-95 interaction; design: method as in PMID 21102461; conditions: extracts from glutamate- or ischemia-induced cultured neurons and cortical brain; cited from earlier work
[8] = system: PSD-95/GluN2B; design: method as in PMID 21102461; conditions: cited from earlier work
[9] = system: animal ischemic stroke models; design: method as in PMID 21102461; conditions: not when the nNOS gene was knocked out; cited from earlier work

T1 sequence (P29475 12-130): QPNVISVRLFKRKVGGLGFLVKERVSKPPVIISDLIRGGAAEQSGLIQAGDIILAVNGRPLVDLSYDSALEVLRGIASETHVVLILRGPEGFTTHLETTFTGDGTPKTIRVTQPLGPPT

inhibition of probe-PDZ interaction (nNOS-PDZ) [1] | effect on affinity between nNOS-PDZ and PSD-95-PDZ2 (ITC) [2] | SMILES | effect on 34 targets in a panel of receptors, ion channels, and transporters [3] | NMDA-induced cGMP production [4] | analgesic properties [5] | binding to PSD-95-PDZ2 by ITC [6] | inhibition of nNOS/PSD-95 interaction (co-immunoprecipitation) [7] | inhibition of PSD-95/GluN2B [8] | neuroprotective properties in animal ischemic stroke models [9]
did not inhibit | appeared to be affected | Oc1c(Cl)cc(Cl)cc1CNc1ccc2[nH]nnc2c1 [IC87201, 2-((1H-Benzo[d][1–3]triazol-5-ylamino)methyl)-4-6-dichlorophenol] | did not affect | blocked | analgesic properties | does not bind | – | – | –
did not inhibit | – | O=C(O)c1ccc(NCc2cc(Cl)cc(Cl)c2O)cc1O [ZL006, 4-((3,5-Dichloro-2-hydroxybenzyl)amino)-2-hydroxybenzoic acid] | – | – | – | binding was too weak to produce a binding isotherm | inhibit | not inhibited | robust neuroprotective properties
